# Source: patent US20250353912A1, “COMPOSITIONS AND METHODS COMPRISING ANTIBODIES THAT BIND TO COVALENT PEPTIDE CONJUGATES” (New York University, priority 2022, published 2025)
# Key:
# H2122 cells = experiment: Cell viability following exposure to sotorasib for 72 hr; type: cell-based; details: FIG. 43A
# H358 cells = experiment: as above; type: cell-based; details: 0.1 μM sotorasib, FIG. 43A
# [1] = cited from earlier work
# [2] = second line disease, versus docetaxel
smiles,measurement,setting,value
C=CC(=O)N1CCN(c2nc(=O)n(-c3c(C)ccnc3C(C)C)c3nc(-c4c(O)cccc4F)c(F)cc23)[C@@H](C)C1 [sotorasib],sotorasib concentration up to which H2122 is resistant,H2122 cells,~10 µM
same,killing of H358 cells,H358 cells,nearly all of the H358 cells were killed
same,patients removed from the study because of liver toxicity,[1]; in vivo,six patients
same,patients with drug-induced liver injury,[1]; in vivo,two patients
same,patients with grade 3/4 liver toxicity,[1]; in vivo,10%
same,overall survival,[1]; [2],no impact
same,progression-free survival,[1]; [2],improved by one month
